This note sets out measurements from US11674120B2, “Methods, kits, and compositions for enhancing cellular therapy” (University of Florida Research Foundation, Incorporated, priority 2016, dated 2023).

The experiment deals with lymph nodes and spleens. Description: In vivo migration of PKH+ DCs to lymph nodes and spleen (immunofluorescence). More on the design: species or system C57BL/6 mice. The following applies: intradermal injection, 48 hours. On the procedure:
Dendritic cells were cultured and loaded with sarcosine as described in Example 1. DCs were also loaded with PKH cell membrane dye. […] After 48 hours, the lymph nodes and spleens were collected from the mice and immunofluorescence was performed to visualize PKH+ cells (which are the injected DCs) and B220+ cells (which are B cells). […] There was vastly more migration to the lymph nodes/spleen.

Structures are written as SMILES.

As to `CNCC(=O)O` [sarcosine, N-methylglycine], the “Increase of migration to the lymph nodes and the spleen over controls, on visual inspection” value was “more than two times, three times, four times more, five times and perhaps even more than ten-fold more than controls”.
